Measured values reported in US10654852B2, “Antibiotics and methods of using same” (THE BROAD INSTITUTE, INC., priority 2016, dated 2020).
pIC50: −log10 of the molar value. Values after ≈ are worked out from the molar mass of the structure shown.

Columns and labels:
[1] = test system: Enterococcus faecium ATCC-700221; assay: MIC (50% NHS); assay type: cell-based; conditions: ATCC700221; Enterococcus faecium ATCC-700221, 50% NHS
[2] = Plasma protein binding (PPB) assay; assay type: in vitro ADME; conditions: % of free compound
Protocol: (§1) The activity profiles of compounds 17, 23, and 24 were assessed by various in vitro measurements. The minimum inhibitory concentration (MIC), MIC in the presence of normal human serum (NHS), microsome CLint, the % of free compounds following a plasma protein biding (PPB) assay, and the concentration of drug where the human-ether-à-go-go-related gene (hERG gene) channel block is halved (IC50(hERG)) were measured using standard in vitro protocols for compounds 17, 23, and 24. Unless otherwise indicated, measurements (e.g., microsomal clearance) were performed using a standard microsomal stability assay using LC/MS/MS techniques.

[3] = test system: Staphylococcus aureus ATCC-29213; assay: MIC (50% NHS); assay type: cell-based; conditions: ATCC29213; Staphylococcus aureus ATCC-29213, 50% NHS
[4] = test system: Klebsiella pneumonia ATCC-43816; assay: MIC (50% NHS); assay type: cell-based; conditions: Klebsiella pneumoniae, ATCC43816; Klebsiella pneumonia ATCC-43816, 50% NHS
[5] = test system: Enterococcus faecalis ATCC-29212; assay: MIC (50% NHS); assay type: cell-based; conditions: ATCC29212; Enterococcus faecalis ATCC-29212, 50% NHS
[6] = test system: Escherichia coli NCTC-13476; assay: MIC (50% NHS); assay type: cell-based; conditions: NCTC13476; Escherichia coli NCTC-13476, 50% NHS
[7] = test system: Pseudomonas aeruginosa ATCC-BAA-47 (PAO1); assay: MIC (50% NHS); assay type: cell-based
[8] = test system: Staphylococcus aureus WX1-009; assay: MIC (50% NHS); assay type: cell-based; conditions: WX1009; Staphylococcus aureus WX1-009, 50% NHS
[9] = test system: Staphylococcus aureus NRS-384; assay: MIC (50% NHS); assay type: cell-based; conditions: NRS384; Staphylococcus aureus NRS-384, 50% NHS
[10] = test system: Escherichia coli CCUG-59353; assay: MIC (50% NHS); assay type: cell-based; conditions: CCUG59353; Escherichia coli CCUG-59353, 50% NHS
[11] = Microsomal stability assay, human CLint; assay type: in vitro ADME; design: unit not given here; conditions: human liver microsomes, 1 μM, 0.5 mg/ml microsomal protein
Protocol: as §1
Test compounds were incubated at 37° C. with liver microsomes pooled from multiple donors at 1 μM in the presence of a NADPH regenerating system at 0.5 mg/ml microsomal protein. Positive of testosterone (a 3A4 substrate), propafenone (a 2D6 substrate), and diclofenac (a 2c9 substrate) were similarly incubated with microsomes in the presence of a NADPH regenerating system. Samples are removed at 0, 5, 10, 20, 30, and 60 minutes of incubation and immediately mixed with cold acetonitrile containing an internal standard (IS). Samples are then analyzed by LC/MS/MS to determine the disappearance of the test compound and are assessed based on the peak area ratios of analyte/IS (no standard curve).

[12] = target: T1, hERG Potassium Ion Channel (Homo sapiens, UniProt Q12809); assay: hERG channel block, automated planar clamp (QPatch), CHO cell line; assay type: cell-based; conditions: hERG channel in stable CHO cell line
T1 construct: expressed in transfected cells
Protocol: as §1
Blockade of the cardiac ion channel coded by the hERG gene can lead to cardiac arrhythmia. […] To determine the viability of inventive compounds as pharmacological agents that would not affect the hERG channel blockade, a standard automated planar clamp method was employed to determine the IC50 for various test compounds on their inhibition of the channel. An electrophysiological assay was prepared to measure the electric current passing through the hERG channel expressed in a stable CHO cell line by applying the planar clamp method. This assay was performed using the automated QPatch platform (Sophion, Denmark) which allows fast and accurate electrophysiological characterization of the hERG ion channel and the determination of IC50 values for the test compounds.

T1 sequence (Q12809 whole entry): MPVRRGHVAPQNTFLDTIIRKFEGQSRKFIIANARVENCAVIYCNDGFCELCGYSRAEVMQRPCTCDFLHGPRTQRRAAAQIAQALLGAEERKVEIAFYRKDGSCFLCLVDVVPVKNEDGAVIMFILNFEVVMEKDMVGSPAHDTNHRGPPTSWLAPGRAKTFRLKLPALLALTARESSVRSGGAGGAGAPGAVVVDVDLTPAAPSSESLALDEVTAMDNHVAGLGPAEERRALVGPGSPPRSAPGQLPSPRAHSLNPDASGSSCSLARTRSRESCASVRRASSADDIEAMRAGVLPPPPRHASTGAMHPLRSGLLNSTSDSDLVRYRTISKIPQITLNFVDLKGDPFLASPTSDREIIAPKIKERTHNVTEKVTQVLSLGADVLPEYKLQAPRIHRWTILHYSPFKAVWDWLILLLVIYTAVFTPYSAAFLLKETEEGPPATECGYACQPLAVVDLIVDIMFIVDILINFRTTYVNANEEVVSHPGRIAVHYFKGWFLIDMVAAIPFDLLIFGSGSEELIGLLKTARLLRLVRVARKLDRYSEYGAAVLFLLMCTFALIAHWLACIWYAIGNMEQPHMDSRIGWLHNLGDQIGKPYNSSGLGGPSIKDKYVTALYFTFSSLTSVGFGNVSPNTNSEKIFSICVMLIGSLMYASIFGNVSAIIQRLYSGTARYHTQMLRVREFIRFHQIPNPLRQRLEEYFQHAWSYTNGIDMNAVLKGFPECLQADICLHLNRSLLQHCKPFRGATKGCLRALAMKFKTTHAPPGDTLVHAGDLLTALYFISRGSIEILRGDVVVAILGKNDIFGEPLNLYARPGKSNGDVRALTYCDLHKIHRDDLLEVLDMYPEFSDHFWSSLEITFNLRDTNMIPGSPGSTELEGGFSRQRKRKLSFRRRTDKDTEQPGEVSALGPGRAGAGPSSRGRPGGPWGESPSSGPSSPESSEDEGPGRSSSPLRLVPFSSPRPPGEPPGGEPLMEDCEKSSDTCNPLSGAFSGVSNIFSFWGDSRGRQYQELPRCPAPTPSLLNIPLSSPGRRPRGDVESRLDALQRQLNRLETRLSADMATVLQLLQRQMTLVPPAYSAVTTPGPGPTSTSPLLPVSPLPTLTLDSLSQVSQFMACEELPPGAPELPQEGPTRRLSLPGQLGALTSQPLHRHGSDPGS

Row | Structure (SMILES) | MIC [1] [µg/mL] | fraction unbound [2] | MIC [3] [µg/mL] | MIC [4] [µg/mL] | MIC [5] [µg/mL] | MIC [6] [µg/mL] | MIC [7] [µg/mL] | MIC [8] [µg/mL] | MIC [9] [µg/mL] | MIC [10] [µg/mL] | human CLint [11] | pIC50 [12]
1 | CN1CC2CN(C(=O)Nc3cc(F)cc(F)c3)CC(C1)C2(O)c1ccc(-c2ccc(CN)cc2C#N)cn1 [Compound 24, (1R,5S,9r)-9-(5-(4-(aminomethyl)-2-cyanophenyl)pyridin-2-yl)-N-(3,5-difluorophenyl)-9-hydroxy-7-methyl-3,7-diazabicyclo[3.3.1]nonane-3-carboxamide] | 4 (≈ 7.71 µM) | 0.38 | 0.25 (≈ 0.482 µM) | 4 (≈ 7.71 µM) | 1 (≈ 1.93 µM) | 4 (≈ 7.71 µM) | 2 (≈ 3.86 µM) | 0.25 (≈ 0.482 µM) | 0.5 (≈ 0.964 µM) | 4 (≈ 7.71 µM) | 144 | < 4.52
2 | CN1CC2CN(C(=O)Nc3cc(F)cc(F)c3)CC(C1)C2(O)c1ccc(-c2ccc(CN)cc2C#N)cc1 [Compound 23, (1R,5S,9r)-9-(4′-(aminomethyl)-2′-cyano-[1,1′-biphenyl]-4-yl)-N-(3,5-difluorophenyl)-9-hydroxy-7-methyl-3,7-diazabicyclo[3.3.1]nonane-3-carboxamide] | 1 (≈ 1.93 µM) | 0.27 | 0.13 (≈ 0.251 µM) | 2 (≈ 3.86 µM) | 0.5 (≈ 0.966 µM) | 2 (≈ 3.86 µM) | 2 (≈ 3.86 µM) | ≤ 0.06 | 0.13 (≈ 0.251 µM) | 2 (≈ 3.86 µM) | 93 | < 4.52
3 | CNCc1ccc(-c2ccc(C3(O)C4CN(C)CC3CN(C(=O)Nc3cc(F)cc(F)c3)C4)nc2)c(C#N)c1 [Compound 17, (1R,5S,9r)-9-(5-(2-cyano-4-((methylamino)methyl)phenyl)pyridin-2-yl)-N-(3,5-difluorophenyl)-9-hydroxy-7-methyl-3,7-diazabicyclo[3.3.1]nonane-3-carboxamide] | 0.89 (≈ 1.67 µM) | 0.45 | ≤ 0.11 | 1.78 (≈ 3.34 µM) | 0.45 (≈ 0.845 µM) | 1.78 (≈ 3.34 µM) | 1.78 (≈ 3.34 µM) | ≤ 0.11 | 0.22 (≈ 0.413 µM) | 1.78 (≈ 3.34 µM) | 138 | < 4.52
